Measurements reported in PubChem BioAssay (NCI).
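Interpolation was linear, between the two tested concentrations surrounding the appropriate level; five concentrations were tested over 48 hours in 96-well plates. GI50: concentration for 50% inhibition of growth. TGI: concentration producing complete growth inhibition.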

Columns and labels:
Experiment in all cases: NCI anticancer screen, dose series, 48 h
[1] = tested on: SNB-19 CNS
[2] = tested on: OVCAR-3 ovarian
[3] = tested on: SF-295 CNS
[4] = tested on: NCI-H460 lung
[5] = tested on: HOP-92 NSCLC
[6] = tested on: BT-549 breast
[7] = tested on: A498 renal
[8] = tested on: HCT-15 colon
[9] = tested on: NCI-H23 lung
[10] = tested on: SF-268 CNS
[11] = tested on: SK-MEL-5 melanoma
[12] = tested on: HOP-62 NSCLC
[13] = tested on: RPMI-8226 leukemia
[14] = tested on: HCC-2998 colon
[15] = tested on: UO-31 renal
[16] = tested on: MDA-MB-435
[17] = tested on: OVCAR-5 ovarian
[18] = tested on: TK-10 renal
[19] = tested on: HS 578T breast
[20] = tested on: 786-0 renal
[21] = tested on: ACHN renal
[22] = tested on: MCF7 breast
[23] = tested on: SK-OV-3 ovarian
[24] = tested on: HCT-116 colon
[25] = tested on: CAKI-1 renal
[26] = tested on: K-562 leukemia
[27] = tested on: LOX IMVI melanoma
[28] = tested on: HT29 colon
[29] = tested on: MOLT-4 leukemia
[30] = tested on: U251 CNS
[31] = tested on: A549 NSCLC
[32] = tested on: M14 melanoma
[33] = tested on: MDA-MB-231 breast
[34] = tested on: T-47D breast
[35] = tested on: SF-539 CNS
[36] = tested on: OVCAR-4 ovarian
[37] = tested on: SK-MEL-28 melanoma
[38] = tested on: SN12C renal
[39] = tested on: NCI-H522 lung
[40] = tested on: NCI-H226 lung
[41] = tested on: OVCAR-8 ovarian
[42] = tested on: SW-620 colon
[43] = tested on: EKVX NSCLC
[44] = tested on: RXF 393 renal
[45] = tested on: SK-MEL-2 melanoma
[46] = tested on: UACC-62 melanoma
[47] = tested on: SNB-75 CNS
[48] = tested on: CCRF-CEM leukemia
[49] = tested on: KM12 colon
[50] = tested on: PC-3 prostate
[51] = tested on: UACC-257 melanoma
[52] = tested on: DU-145 prostate
[53] = tested on: NCI/ADR-RES ovarian
[54] = tested on: COLO 205 colon

Compound: ClCc1ccccc1Cn1cnc2c(Cl)ncnc21
- GI50 [1]: 5.38 µM
- TGI [1]: > 100 µM
- GI50 [2]: 1.4 µM
- TGI [2]: 3.53 µM
- GI50 [3]: 10.5 µM
- TGI [3]: 23.3 µM
- GI50 [4]: 15.4 µM
- TGI [4]: 44.5 µM
- GI50 [5]: 1.49 µM
- TGI [5]: 4.27 µM
- GI50 [6]: 2 µM
- TGI [6]: 5.51 µM
- GI50 [7]: 17.4 µM
- TGI [7]: 32.2 µM
- GI50 [8]: 2.07 µM
- TGI [8]: 4.71 µM
- GI50 [9]: 2.02 µM
- TGI [9]: 4.34 µM
- GI50 [10]: 3.24 µM
- TGI [10]: 10.9 µM
- GI50 [11]: 1.4 µM
- TGI [11]: 2.88 µM
- GI50 [12]: 2.52 µM
- TGI [12]: 6.03 µM
- GI50 [13]: 14.1 µM
- TGI [13]: 40.6 µM
- GI50 [14]: 1.67 µM
- TGI [14]: 3.54 µM
- GI50 [15]: 2.65 µM
- TGI [15]: 10.4 µM
- GI50 [16]: 3.01 µM
- TGI [16]: 9.49 µM
- GI50 [17]: 2.46 µM
- TGI [17]: 6.53 µM
- GI50 [18]: 23.1 µM
- TGI [18]: 46.7 µM
- GI50 [19]: 2.28 µM
- TGI [19]: 6.67 µM
- GI50 [20]: 17.7 µM
- TGI [20]: 38.4 µM
- GI50 [21]: 2.7 µM
- TGI [21]: 6.1 µM
- GI50 [22]: 11.1 µM
- TGI [22]: > 100 µM
- GI50 [23]: 4.19 µM
- TGI [23]: 15.9 µM
- GI50 [24]: 1.91 µM
- TGI [24]: 3.69 µM
- GI50 [25]: 1.83 µM
- TGI [25]: 4.14 µM
- GI50 [26]: 1.2 µM
- TGI [26]: 5.13 µM
- GI50 [27]: 2.14 µM
- TGI [27]: 5.21 µM
- GI50 [28]: 3.56 µM
- TGI [28]: > 100 µM
- GI50 [29]: 1.6 µM
- TGI [29]: 5.28 µM
- GI50 [30]: 2.65 µM
- TGI [30]: 6.11 µM
- GI50 [31]: 7.73 µM
- TGI [31]: 25.8 µM
- GI50 [32]: 1.94 µM
- TGI [32]: 3.74 µM
- GI50 [33]: 3.04 µM
- TGI [33]: 7.41 µM
- GI50 [34]: 17.9 µM
- TGI [34]: 62 µM
- GI50 [35]: 10.7 µM
- TGI [35]: 24.2 µM
- GI50 [36]: 3.39 µM
- TGI [36]: 12.2 µM
- GI50 [37]: 2.31 µM
- TGI [37]: 5.48 µM
- GI50 [38]: 3.37 µM
- TGI [38]: 8.72 µM
- GI50 [39]: 1.82 µM
- TGI [39]: 7.24 µM
- GI50 [40]: 4.59 µM
- TGI [40]: 12.5 µM
- GI50 [41]: 2.22 µM
- TGI [41]: 5.21 µM
- GI50 [42]: 1.78 µM
- TGI [42]: 5.04 µM
- GI50 [43]: 3.11 µM
- TGI [43]: 11 µM
- GI50 [44]: 0.442 µM
- TGI [44]: 2.32 µM
- GI50 [45]: 2.76 µM
- TGI [45]: 18.1 µM
- GI50 [46]: 3.28 µM
- TGI [46]: 6.66 µM
- GI50 [47]: 2.86 µM
- TGI [47]: 11.1 µM
- GI50 [48]: 1.28 µM
- TGI [48]: 3.24 µM
- GI50 [49]: 16.6 µM
- TGI [49]: 33.2 µM
- GI50 [50]: 3.03 µM
- TGI [50]: 10.5 µM
- GI50 [51]: 10.7 µM
- TGI [51]: 26.6 µM
- GI50 [52]: 5.65 µM
- TGI [52]: 34.4 µM
- GI50 [53]: 2.21 µM
- TGI [53]: 4.72 µM
- GI50 [54]: 3.89 µM
- TGI [54]: > 100 µM
